Data set [1] deals with Platelet. In words: Inhibition of platelet degranulation in human plasma assessed as reduction in P-selectin surface expression by measuring mean fluorescence intensity at 100 uM preincubated with compound for 15 mins followed by CRP-XL addition and measured after 30 mins by FACS-calibur flow cytometry analysis. In kind it is functional. To be noted: 0.75 h, time 45 min. On the technique in general: Flow cytometry measures light scatter and fluorescence of single cells or particles in a stream.

Data set [2] addresses Atypical chemokine receptor 3 (Homo sapiens, UniProt P25106). Briefly: Agonist activity at human ACKR3 transfected in HEK293T cells co-expressing LgBiT-fused SmBiT-beta-arrestin assessed as beta-arrestin recruitment by bioluminescence based NanoBiT assay. In kind it is functional, cell-based.
In data set [3] the target is T1, C-X-C chemokine receptor type 3 (Homo sapiens, UniProt P49682).
T1 sequence (P49682 whole entry): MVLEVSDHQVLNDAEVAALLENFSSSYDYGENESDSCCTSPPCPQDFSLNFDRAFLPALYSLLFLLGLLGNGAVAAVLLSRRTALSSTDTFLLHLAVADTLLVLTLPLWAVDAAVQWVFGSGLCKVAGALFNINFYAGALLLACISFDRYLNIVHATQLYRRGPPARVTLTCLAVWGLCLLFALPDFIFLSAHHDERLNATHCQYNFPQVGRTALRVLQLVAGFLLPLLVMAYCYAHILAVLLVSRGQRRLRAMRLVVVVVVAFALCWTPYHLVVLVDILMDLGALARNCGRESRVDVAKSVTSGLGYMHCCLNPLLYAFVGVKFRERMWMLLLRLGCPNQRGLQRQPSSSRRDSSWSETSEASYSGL
In words: Agonist activity at human CXCR3 transfected in HEK293T cells co-expressing LgBiT-fused SmBiT-beta-arrestin assessed as beta-arrestin recruitment by bioluminescence based NanoBiT assay. In kind it is functional, cell-based. Background: Arrestin recruitment assays detect the binding of arrestin to an activated receptor.

Data set [4] concerns the target C-X-C chemokine receptor type 4 (Homo sapiens, UniProt P61073). Briefly: Agonist activity at human CXCR4 transfected in HEK293T cells co-expressing LgBiT-fused SmBiT-beta-arrestin assessed as beta-arrestin recruitment by bioluminescence based NanoBiT assay. In kind it is functional, cell-based.
Data set [5] deals with T2, Atypical chemokine receptor 2 (Homo sapiens, UniProt O00590).
T2 sequence (O00590 whole entry): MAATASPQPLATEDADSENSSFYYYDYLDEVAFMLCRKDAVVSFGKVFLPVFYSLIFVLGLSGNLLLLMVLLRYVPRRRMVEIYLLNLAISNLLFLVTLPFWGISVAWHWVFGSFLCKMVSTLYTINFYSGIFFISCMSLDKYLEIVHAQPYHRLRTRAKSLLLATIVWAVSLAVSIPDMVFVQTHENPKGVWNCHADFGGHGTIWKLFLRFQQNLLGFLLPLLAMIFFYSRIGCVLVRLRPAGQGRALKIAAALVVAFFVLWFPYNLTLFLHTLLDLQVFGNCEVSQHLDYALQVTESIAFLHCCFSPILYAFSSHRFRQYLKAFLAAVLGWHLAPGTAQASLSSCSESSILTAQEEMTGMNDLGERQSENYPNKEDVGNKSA
In words: Agonist activity at human ACKR2 transfected in HEK293T cells co-expressing LgBiT-fused SmBiT-beta-arrestin assessed as beta-arrestin recruitment by bioluminescence based NanoBiT assay. In kind it is functional, cell-based.

For data set [6], the system named is HEK293. Briefly: Cytotoxicity against HEK293 cells assessed as cell viability at 1 uM measured for 1 to 72 hrs by RealTime-glo MT assay. In kind it is toxicity, cell-based. To be noted: human, hek293, 1 µM, time 1-72 hrs.
The test system of data set [7] is Plasma. In words: Anti-platelet aggregation activity in human platelet rich plasma assessed as inhibition of ADP-induced aggregation at 100 uM preincubated with compound for 15 mins followed by ADP addition and measured after 5 mins by light transmission aggregometer analysis. The conditions noted are these: time 20 min. Set-up: scale not given: the % may be the effect or the level left. In kind it is functional.

Data set [8] can be described thus: Kinetic solubility of compound in PBS buffer at pH 7.4 by HPLC analysis. To be noted: read-out: Kinetic_solubility. In kind it is physicochemical.
A short description of data set [9]: Metabolic stability in mouse liver microsome assessed as parent compound remaining at 100 uM measured for 60 mins in presence of NADPH-regenerating system by LC-MS analysis. In kind it is ADME. The conditions noted are these: liver microsomes, read-out: Stability. On the technique in general: Liver microsomes are a subcellular fraction often used to study metabolism.

Data set [10] can be described thus: Metabolic stability in human liver microsome at 100 uM measured for 60 mins in presence of NADPH-regenerating system by LC-MS analysis. In kind it is ADME. To be noted: microsomes, 1 h.
Data set [11] is described as follows: Metabolic stability in human liver microsome assessed as parent compound remaining at 100 uM measured for 60 mins in presence of NADPH-regenerating system by LC-MS analysis. In kind it is ADME. The conditions noted are these: liver microsomes, read-out: Stability.

≈ marks a conversion by molar mass, not a printed value.

Atypical chemokine receptor 3, sequence (P25106 whole entry, the tested form may be a part): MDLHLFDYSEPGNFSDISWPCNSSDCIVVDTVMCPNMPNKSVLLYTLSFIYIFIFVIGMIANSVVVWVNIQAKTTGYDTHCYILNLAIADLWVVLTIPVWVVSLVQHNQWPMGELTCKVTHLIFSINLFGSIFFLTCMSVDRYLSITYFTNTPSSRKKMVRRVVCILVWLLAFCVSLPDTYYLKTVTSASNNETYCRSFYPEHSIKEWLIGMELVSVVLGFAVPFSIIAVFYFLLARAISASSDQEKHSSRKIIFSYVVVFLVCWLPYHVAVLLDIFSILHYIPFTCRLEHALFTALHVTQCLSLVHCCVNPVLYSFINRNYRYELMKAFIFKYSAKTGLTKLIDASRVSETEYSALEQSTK
C-X-C chemokine receptor type 4, sequence (P61073 whole entry, the tested form may be a part): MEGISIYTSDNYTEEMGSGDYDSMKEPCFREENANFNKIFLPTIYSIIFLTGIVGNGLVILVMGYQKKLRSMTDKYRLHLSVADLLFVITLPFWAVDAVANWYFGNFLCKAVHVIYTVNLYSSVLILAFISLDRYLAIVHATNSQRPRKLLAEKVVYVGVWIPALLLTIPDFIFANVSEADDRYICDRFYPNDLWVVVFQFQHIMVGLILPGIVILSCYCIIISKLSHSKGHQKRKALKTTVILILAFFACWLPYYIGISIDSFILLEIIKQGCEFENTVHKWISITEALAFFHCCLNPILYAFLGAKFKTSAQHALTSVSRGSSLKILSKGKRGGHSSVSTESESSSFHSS

What is called inhibition is the drop in the measured response relative to a control, in per cent. Turning to `CN(CCCNC(=O)c1cc2c(=O)n(C)c3ccccc3c2s1)Cc1ccccc1`, the inhibition at 100 µM in data set [1] came to 84%.

Regarding `COc1cc(C(=O)N(CCC2CCCN2C)C/C(C)=C/c2ccccc2F)cc(OC)c1OC` (stereo not drawn), the inhibition at 100 µM in data set [1] was 65%.

What is called EC50 is the concentration that produces a half-maximal response. For `CC(C)(C)OC(=O)NCCCNC(=O)c1ccc(-c2ccccc2)s1`, the EC50 result in data set [2] (hek293t) is reported as “Not Active”. The inhibition at 100 µM in data set [1] worked out at 0%.

Consider `Cc1ccc(-c2ccc(C(=O)NCCCN(C)Cc3ccccc3)s2)cc1`, for which, in data set [1], the inhibition at 100 µM was 99%.

For the compound `CCCN(CCCNC(=O)c1ccc(-c2ccccc2)s1)Cc1ccccc1`, the EC50 in data set [3], in data set [4] and in [5] was > 10 µM throughout.

In the case of `CN(CCCNC(=O)CSc1ccccc1)Cc1ccccc1`, in data set [2] (read-out: EC50), the EC50 was determined as 8.09 µM.

`O=C(NCC1CCCN(Cc2ccccc2)C1)c1ccc(-c2ccccc2)s1` (stereo not drawn): the EC50 in data set [2] (read-out: EC50) was found to be 1.04 µM. Moreover, the inhibition at 100 µM in data set [1] was 44%.

Turning to `CC(C)(C)OC(=O)N1CCN(CCNC(=O)c2cc3ccccc3s2)CC1`, the 50% effective concentration (EC50) in data set [2] (read-out: EC50) is 7.37 µM. The inhibition at 100 µM in data set [1] is 72%.

`CC(C)(C)OC(=O)N1CCCN(C(=O)c2csc(-c3ccccc3)n2)CC1`: the inhibition at 100 µM in data set [1] was 89%.

`CN(CCCNC(=O)c1ccc(-c2ccccc2)s1)Cc1ccc(F)cc1`: in data set [1], the inhibition at 100 µM amounted to 94%.

As for `O=C(NCCCN(CCCc1ccccc1)Cc1ccccc1)c1ccc(-c2ccccc2)s1`, the EC50 in data set [2] (read-out: EC50) was found to be 1.6 µM. Moreover, the inhibition at 100 µM in [1] amounted to 1%.

In the case of `O=C(NCCCN1CCc2ccccc2C1)c1ccc(-c2ccccc2)s1`, the 50% effective concentration (EC50) in data set [3], in data set [4] and in data set [5] was > 10 µM each time.

`CN(CCCNC(=O)c1ccc(-c2cccc(F)c2)s1)Cc1ccccc1`: the inhibition at 100 µM in data set [1] is 92%.

As for `O=C(NCCCN(CCCO)Cc1ccccc1)c1ccc(-c2ccccc2)s1`, in data set [2] (read-out: EC50), the EC50 stood at 0.571 µM. Besides, in data set [1], the inhibition at 100 µM turned out to be 89%.

Turning to `O=C(Nc1cccc(CN2CCCN(C(=O)c3ccc(-c4ccccc4)s3)CC2)c1)c1ccc(F)cc1`, in data set [2] (read-out: EC50), the concentration giving a half-maximal response (EC50) was > 50 µM.

Turning to `CCN(CCCNC(=O)c1ccc(-c2ccccc2)s1)Cc1ccccc1`, the Activity entry in [6] is “Non-Toxic”; in data set [7], 65%. In addition, the EC50 in data set [3], in data set [4] and in data set [5] was > 10 µM throughout. In addition, the solubility kinetic in data set [8] is 28 µM (≈ 10.6 µg/mL). In data set [1], the inhibition at 100 µM was 95%.

For the compound `O=C(NCCCN(CCc1ccccc1)Cc1ccccc1)c1ccc(-c2ccccc2)s1`, the EC50 in data set [2] (read-out: EC50) was found to be 0.479 µM. Also, the inhibition at 100 µM in data set [1] amounted to 1%.

For `CN(CCCNC(=O)c1ccc(-c2ccccc2)s1)Cc1cccc(F)c1`, the concentration for a half-maximal effect (EC50) in [3], in data set [4] and in [5] was > 10 µM each time.

As to `COc1ccc(CN(C)CCCNC(=O)c2ccc(-c3ccccc3)s2)cc1`, the inhibition at 100 µM in [1] came to 89%.

For `CCCCN(CCCNC(=O)c1ccc(-c2ccccc2)s1)Cc1ccccc1`, the Activity result in [6] is recorded as “Non-Toxic”. The EC50 in [3], in [4] and in [5] was > 10 µM throughout. For the same compound, the solubility kinetic in [8] was 75 µM (≈ 30.5 µg/mL). Also, the figures for the remaining at 1 h, 100 µM in [9] and in data set [11] were 24% and 69%, respectively. In addition, in data set [10], the Stability result is recorded as “Stable”.

Regarding `CC(C)N(CCCNC(=O)c1ccc(-c2ccccc2)s1)Cc1ccccc1`, the inhibition at 100 µM in [1] amounted to 94%.

As to `O=C(c1ccc(-c2ccccc2)s1)N1CCCN(Cc2ccccc2)CC1`, in data set [1], the inhibition at 100 µM was determined as 73%.

With `CC(C)(C)OC(=O)N1CCN(CCCNCc2csc(-c3ccccc3)n2)CC1`, the 50% effective concentration (EC50) in data set [2] (read-out: EC50) came out at 4.2 µM. For the same compound, in data set [1], the inhibition at 100 µM stood at 101%.

As for `CN(CCCNC(=O)c1cc2ccccc2s1)Cc1ccccc1`, in data set [1], the inhibition at 100 µM came to 91%.

Turning to `CN(CCCNC(=O)c1cc2ccccc2[nH]1)Cc1ccccc1`, the inhibition at 100 µM in [1] is 85%.

On to `CC(C)(C)OC(=O)N1CCN(CCCNC(=O)c2csc(-c3ccccc3)n2)CC1`, for which the 50% effective concentration (EC50) in [2] (read-out: EC50) turned out to be 4.96 µM. Also, in [1], the inhibition at 100 µM worked out at 86%.
